# The source made the active and inactive calls.
# How the values were obtained:
# [1] = luciferase reporter signal suppression in cells – H4 neuroglioma cells, luminescence, dose response (AID 1990); format: functional, cell-based
# [2] = Luminescence Cell-Based Dose Response HTS to Identify Inhibitors of 5'UTR Stem-Loop Driven Prion Protein mRNA Translation in H4 Neuroglioblastoma Cells. [Related pubchem assays: 1827 (Project Summary), 1813 (Primary HTS)]; format: functional
# Vero [3] = test: mammalian cell viability reduction – secondary assay, cytotoxicity control for West Nile virus antiviral project, dose response (AID 1650); format: functional; details: Chlorocebus sabaeus
# [4] = alpha-synuclein stem-loop luciferase translation blockers – H4 neuroglioma cells, luminescence, confirmation (AID 1988); format: functional, cell-based
# [5] = Trypanosoma cruzi growth suppression in host cells – NIH3T3 host cells, beta-gal luminescence, confirmation (AID 2044); format: functional, cell-based;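 also: intracellular parasites grown in NIH/3T3 mouse fibroblasts as host cells; luminescent beta-galactosidase reporter signal from transgenic T. cruzi replicating inside host cells; inhibitors lower the luminescence signal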
# [6] = NIH3T3 cell viability loss – ATP luminescence, mouse fibroblasts, counter-screen, dose response (AID 2010); format: functional, cell-based;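 also: cells exposed to compound for about 90 hours before reading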
# Vero [7] = test: cells; format: functional, cell-based; details: Chlorocebus sabaeus
# Vero [8] = test: cells; format: functional; details: Chlorocebus sabaeus
# Cytochrome P450 1A2 = target: T1, Cytochrome P450 1A2 (Homo sapiens, UniProt P05177);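 also: PubChem cytochrome P450 panel assay, CYP1A2 panel member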
# T1 sequence (P05177 whole entry): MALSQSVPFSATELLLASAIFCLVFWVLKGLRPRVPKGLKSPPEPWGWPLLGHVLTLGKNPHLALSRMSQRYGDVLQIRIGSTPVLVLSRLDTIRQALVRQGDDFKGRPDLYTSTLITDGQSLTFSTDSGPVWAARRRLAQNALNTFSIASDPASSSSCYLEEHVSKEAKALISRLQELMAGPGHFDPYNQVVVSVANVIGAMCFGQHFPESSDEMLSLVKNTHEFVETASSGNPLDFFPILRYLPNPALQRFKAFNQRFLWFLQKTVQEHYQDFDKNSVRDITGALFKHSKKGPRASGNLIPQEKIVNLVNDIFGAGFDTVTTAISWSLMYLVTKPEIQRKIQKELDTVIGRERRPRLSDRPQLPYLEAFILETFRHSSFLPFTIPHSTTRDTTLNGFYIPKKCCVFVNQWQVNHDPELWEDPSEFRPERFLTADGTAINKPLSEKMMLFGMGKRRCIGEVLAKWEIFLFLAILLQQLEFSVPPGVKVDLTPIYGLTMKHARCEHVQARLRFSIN
# Bcl-2-related protein A1 [9] = target: T2, Bcl-2-related protein A1 (Mus musculus, UniProt Q07440); test: displacement of Bid BH3 peptide from Bfl-1 – biochemical, fluorescence polarization, FITC-Bid, mouse, primary screen (AID 432)
# T2 sequence (Q07440 whole entry): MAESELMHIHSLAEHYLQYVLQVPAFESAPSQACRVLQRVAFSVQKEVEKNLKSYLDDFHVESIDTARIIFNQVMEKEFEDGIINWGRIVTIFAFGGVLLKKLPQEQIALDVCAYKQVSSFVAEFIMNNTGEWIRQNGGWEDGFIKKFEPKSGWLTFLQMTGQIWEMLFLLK
# Bcl-2-related protein A1 [10] = target: T2, Bcl-2-related protein A1; test: small-molecule antagonists of Bfl-1/BH3 interaction – biochemical, TR-FRET, mouse Bfl-1, confirmation (AID 621);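 also: TR-FRET binding of GST-Bfl-1 to FITC-labelled Bid peptide via terbium antibody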
# Danio rerio = test: In Vivo Angiogenesis Dose-Response Confirmation. [Related pubchem assays: 732 (Assay preceding this confirmatory assay.)]; format: functional, organism-based
# Cytochrome P450 2C19 = Cytochrome P450 2C19 (Homo sapiens, UniProt P33261); test: Cytochrome panel assay with activity outcomes. Panel member name: p450-cyp2c19 Compounds with AC50 equal or less than 10 uM are considered active; format: functional; details: read-out: AC50
# Cytochrome P450 2C9 [11] = target: T3, Cytochrome P450 2C9 (Homo sapiens, UniProt P11712); details: Potency
# Cytochrome P450 2C9 [12] = target: T3, Cytochrome P450 2C9
# [13] = Luminescent dose response cell-based high throughput screening assay for inhibitors of the Janus kinase 2 mutant JAK2V617F. [Related pubchem assays: 1446 (Primary screen.), 1521 (Confirmation assay.), 1486 (Counter screen.)]; format: functional
# [14] = target: Luciferin 4-monooxygenase (Photinus pyralis, UniProt P08659); test: inhibition of purified Photinus pyralis luciferase – biochemical, luminescence, dose response (AID 1891)
# [15] = Luminescence Cell-Based Dose Confirmation HTS to Identify Inhibitors of Platelet Dense Granule Release. [Related pubchem assays: 1663 (Primary HTS), 1678 (Summary of Project)]; format: functional
# [16] = microbe, parasite or virus in culture; format: functional; details: Mycobacterium tuberculosis
# [17] = target: T4, Sphingosine 1-phosphate receptor 4 (Homo sapiens, UniProt O95977); test: Late stage fluorescence dose response cell-based screening assay for antagonists of the Sphingosine 1-Phosphate Receptor 4 (S1P4). [Related pubchem assays: 1524 (Confirmation screen (S1P4 antagonists).), 1510 (Primary screen (S1P4 antagonists).), 1853 (Summary AID (S1P4 antagonists).), 1692 (Dose response screen (S1P4 antagonists).)]; format: functional
# T4 sequence (O95977 whole entry): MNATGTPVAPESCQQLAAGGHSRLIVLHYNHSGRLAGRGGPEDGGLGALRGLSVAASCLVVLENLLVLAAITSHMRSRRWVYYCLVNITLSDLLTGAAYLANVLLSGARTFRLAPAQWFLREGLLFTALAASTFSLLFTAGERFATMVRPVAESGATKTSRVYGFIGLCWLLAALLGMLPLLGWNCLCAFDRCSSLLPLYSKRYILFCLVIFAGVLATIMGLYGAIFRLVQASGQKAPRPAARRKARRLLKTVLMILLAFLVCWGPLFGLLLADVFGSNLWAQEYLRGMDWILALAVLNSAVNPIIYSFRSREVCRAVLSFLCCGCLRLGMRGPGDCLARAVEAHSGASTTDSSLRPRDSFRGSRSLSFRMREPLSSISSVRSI
# [18] = target: T4, Sphingosine 1-phosphate receptor 4; test: Fluorescence dose response cell-based high throughput screening assay for antagonists of the Sphingosine 1-Phosphate Receptor 4 (S1P4). [Related pubchem assays: 1524 (Confirmation in triplicates.), 1510 (Primary screen.)]; format: functional
# [19] = target: Sphingosine 1-phosphate receptor 1 (Homo sapiens, UniProt P21453); format: functional;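 also: Tango beta-arrestin reporter U2OS cells stimulated with S1P near its EC80; inhibitor potency meaning antagonism of receptor activation by the natural agonist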
# [20] = target: T5, Heat shock factor protein 1 (Mus musculus, UniProt P38532); test: enhancement of HSF1-driven luciferase signal – cell-based, NIH3T3, luminescence, dose retest, confirmation (AID 435004); format: functional;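 also: stress induced by proteasome inhibitor MG132 added 30 min after compound; luciferase reporter driven by HSF1 response element in NIH3T3 cells; actives raise luminescence as potentiators of the MG132 stress response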
# T5 sequence (P38532 whole entry): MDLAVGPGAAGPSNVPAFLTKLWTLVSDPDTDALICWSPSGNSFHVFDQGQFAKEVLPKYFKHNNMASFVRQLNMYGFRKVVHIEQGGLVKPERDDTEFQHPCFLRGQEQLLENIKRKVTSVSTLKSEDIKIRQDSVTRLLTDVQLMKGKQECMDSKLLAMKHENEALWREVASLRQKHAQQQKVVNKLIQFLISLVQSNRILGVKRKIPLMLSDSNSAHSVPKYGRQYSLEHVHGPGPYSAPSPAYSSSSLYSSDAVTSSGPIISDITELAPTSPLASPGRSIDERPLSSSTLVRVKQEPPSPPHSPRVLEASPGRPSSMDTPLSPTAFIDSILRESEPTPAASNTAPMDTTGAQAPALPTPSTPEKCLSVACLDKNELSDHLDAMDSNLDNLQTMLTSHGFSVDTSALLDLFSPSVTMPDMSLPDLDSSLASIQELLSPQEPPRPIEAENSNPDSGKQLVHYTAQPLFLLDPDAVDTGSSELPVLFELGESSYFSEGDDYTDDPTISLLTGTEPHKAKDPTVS
# [21] = target: Voltage-gated inwardly rectifying potassium channel KCNH2 (Homo sapiens, UniProt Q12809); test: concentration-dependent hERG rescue from blockers – cell-based, thallium flux, dose response (AID 2121); format: ADME
# 14-3-3 protein gamma = 14-3-3 protein gamma (Homo sapiens, UniProt P61981); test: modulators of 14-3-3 gamma client binding – dose response (AID 711); format: functional
# [22] = target: T6, Replicative DNA helicase DnaB (Mycobacterium tuberculosis, UniProt P9WMR3); test: DnaB intein splicing inhibitors, dose response, biochemical, cell-free fluorescence (AID 449749); format: functional
# T6 sequence (P9WMR3 whole entry): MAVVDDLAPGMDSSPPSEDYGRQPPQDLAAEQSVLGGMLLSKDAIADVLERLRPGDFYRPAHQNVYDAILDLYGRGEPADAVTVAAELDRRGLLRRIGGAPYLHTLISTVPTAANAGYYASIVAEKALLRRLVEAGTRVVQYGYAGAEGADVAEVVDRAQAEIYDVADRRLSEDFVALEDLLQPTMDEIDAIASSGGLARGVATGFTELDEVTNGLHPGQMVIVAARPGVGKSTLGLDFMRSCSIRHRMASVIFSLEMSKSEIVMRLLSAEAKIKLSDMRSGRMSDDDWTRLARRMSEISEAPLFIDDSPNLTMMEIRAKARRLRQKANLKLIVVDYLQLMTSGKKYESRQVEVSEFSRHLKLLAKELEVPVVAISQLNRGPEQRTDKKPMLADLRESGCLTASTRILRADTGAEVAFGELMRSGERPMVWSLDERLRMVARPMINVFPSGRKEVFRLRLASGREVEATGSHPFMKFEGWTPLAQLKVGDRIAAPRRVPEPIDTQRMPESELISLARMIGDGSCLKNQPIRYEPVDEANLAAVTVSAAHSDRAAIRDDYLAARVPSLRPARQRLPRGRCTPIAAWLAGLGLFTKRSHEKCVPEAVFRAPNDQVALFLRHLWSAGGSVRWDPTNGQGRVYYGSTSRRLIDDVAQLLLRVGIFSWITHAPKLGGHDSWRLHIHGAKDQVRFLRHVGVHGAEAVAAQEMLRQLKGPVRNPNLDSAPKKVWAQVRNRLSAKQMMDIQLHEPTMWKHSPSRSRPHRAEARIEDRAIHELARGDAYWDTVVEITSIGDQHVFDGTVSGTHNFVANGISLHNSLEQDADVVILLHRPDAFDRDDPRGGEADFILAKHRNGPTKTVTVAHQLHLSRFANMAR
# Protein RecA = target: T7, Protein RecA (Mycobacterium tuberculosis, UniProt P9WHJ3); test: Fluorescence Cell-Free Homogeneous Dose Retest to Identify Inhibitors of RecA-Intein Splicing Activity. [Related pubchem assays (depositor defined):AID2097, AID2223, AID489010, AID492950]; format: functional
# T7 sequence (P9WHJ3 whole entry): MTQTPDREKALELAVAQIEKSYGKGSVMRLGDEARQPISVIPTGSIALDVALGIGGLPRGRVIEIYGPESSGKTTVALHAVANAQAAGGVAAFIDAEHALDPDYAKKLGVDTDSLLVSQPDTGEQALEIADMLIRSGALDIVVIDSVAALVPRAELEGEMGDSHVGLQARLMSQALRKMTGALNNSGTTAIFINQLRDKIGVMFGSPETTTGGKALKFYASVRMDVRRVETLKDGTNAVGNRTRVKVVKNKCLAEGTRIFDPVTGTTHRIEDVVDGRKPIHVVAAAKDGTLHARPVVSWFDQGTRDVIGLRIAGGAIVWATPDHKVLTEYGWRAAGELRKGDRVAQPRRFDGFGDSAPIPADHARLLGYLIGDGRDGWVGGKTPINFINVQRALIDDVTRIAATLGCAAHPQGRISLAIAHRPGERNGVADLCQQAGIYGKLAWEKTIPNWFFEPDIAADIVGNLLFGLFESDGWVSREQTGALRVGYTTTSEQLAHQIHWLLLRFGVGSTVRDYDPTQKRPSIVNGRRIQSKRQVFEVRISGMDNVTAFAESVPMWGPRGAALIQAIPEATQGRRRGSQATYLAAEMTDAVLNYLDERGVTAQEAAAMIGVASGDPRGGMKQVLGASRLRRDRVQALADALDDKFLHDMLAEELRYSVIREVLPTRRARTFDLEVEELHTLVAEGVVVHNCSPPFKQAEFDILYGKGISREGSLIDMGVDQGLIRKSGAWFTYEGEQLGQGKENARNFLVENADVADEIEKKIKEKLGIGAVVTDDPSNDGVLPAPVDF
# [23] = target: Glyceraldehyde-3-phosphate dehydrogenase (Homo sapiens, UniProt P04406)
# Bcl-2-related protein A1 [24] = target: T2, Bcl-2-related protein A1; test: Bfl-1 binding inhibitors, SAR follow-up, biochemical, fluorescence polarization (AID 1070)
# Vero [25] = test: Vero cell viability after compound exposure – synthesized analogs, set II, cytotoxicity control for West Nile virus antiviral project, SAR follow-up (AID 2402); format: functional; details: Chlorocebus sabaeus
# T3 sequence (P11712 whole entry): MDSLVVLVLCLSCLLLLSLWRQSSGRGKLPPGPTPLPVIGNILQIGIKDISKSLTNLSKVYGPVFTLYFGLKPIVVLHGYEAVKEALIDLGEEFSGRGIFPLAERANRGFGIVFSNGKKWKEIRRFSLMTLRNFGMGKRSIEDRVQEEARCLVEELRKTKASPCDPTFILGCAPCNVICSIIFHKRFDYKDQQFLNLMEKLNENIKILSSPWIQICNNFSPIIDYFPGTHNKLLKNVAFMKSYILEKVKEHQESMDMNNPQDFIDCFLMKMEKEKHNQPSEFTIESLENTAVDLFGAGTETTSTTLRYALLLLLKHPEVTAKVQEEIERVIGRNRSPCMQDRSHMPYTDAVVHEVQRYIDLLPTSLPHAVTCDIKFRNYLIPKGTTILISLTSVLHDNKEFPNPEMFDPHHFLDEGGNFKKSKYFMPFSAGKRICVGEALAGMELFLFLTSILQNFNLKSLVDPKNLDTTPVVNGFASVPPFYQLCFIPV
# 14-3-3 protein gamma, sequence (P61981 whole entry): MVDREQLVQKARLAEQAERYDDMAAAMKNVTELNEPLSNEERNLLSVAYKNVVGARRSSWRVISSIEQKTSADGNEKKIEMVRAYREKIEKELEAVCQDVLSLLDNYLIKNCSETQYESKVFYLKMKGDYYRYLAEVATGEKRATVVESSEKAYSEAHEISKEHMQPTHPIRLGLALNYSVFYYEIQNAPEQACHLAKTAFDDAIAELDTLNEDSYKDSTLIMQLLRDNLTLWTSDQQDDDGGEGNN
# Cytochrome P450 2C19, sequence (P33261 whole entry): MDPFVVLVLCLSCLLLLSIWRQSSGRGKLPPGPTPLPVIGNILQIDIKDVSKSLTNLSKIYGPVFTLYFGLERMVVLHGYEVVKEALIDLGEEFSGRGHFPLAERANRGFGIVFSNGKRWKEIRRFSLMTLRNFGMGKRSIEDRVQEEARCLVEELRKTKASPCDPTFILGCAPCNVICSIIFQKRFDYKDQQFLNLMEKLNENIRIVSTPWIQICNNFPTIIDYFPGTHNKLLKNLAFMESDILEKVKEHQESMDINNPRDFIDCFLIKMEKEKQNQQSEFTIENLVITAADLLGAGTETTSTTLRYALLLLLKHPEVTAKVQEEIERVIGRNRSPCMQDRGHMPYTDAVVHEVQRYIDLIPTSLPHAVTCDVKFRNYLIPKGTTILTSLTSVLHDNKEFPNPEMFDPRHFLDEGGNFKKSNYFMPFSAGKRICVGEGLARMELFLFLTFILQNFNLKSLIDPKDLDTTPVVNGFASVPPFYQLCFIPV
# Luciferin 4-monooxygenase, sequence (P08659 whole entry): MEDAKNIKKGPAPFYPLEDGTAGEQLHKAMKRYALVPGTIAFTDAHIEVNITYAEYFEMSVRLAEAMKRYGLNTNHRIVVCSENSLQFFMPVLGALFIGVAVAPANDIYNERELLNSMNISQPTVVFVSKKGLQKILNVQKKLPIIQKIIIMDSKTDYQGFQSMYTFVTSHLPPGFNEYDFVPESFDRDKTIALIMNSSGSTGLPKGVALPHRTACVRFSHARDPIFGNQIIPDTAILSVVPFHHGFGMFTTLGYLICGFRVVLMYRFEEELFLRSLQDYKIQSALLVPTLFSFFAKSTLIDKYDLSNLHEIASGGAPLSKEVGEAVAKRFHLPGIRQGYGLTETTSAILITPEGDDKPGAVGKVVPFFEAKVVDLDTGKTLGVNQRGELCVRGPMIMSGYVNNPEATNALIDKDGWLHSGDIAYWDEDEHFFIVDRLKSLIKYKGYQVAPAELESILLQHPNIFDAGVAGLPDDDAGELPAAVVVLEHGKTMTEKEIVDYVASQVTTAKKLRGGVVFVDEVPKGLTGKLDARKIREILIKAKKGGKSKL
# Sphingosine 1-phosphate receptor 1, sequence (P21453 whole entry): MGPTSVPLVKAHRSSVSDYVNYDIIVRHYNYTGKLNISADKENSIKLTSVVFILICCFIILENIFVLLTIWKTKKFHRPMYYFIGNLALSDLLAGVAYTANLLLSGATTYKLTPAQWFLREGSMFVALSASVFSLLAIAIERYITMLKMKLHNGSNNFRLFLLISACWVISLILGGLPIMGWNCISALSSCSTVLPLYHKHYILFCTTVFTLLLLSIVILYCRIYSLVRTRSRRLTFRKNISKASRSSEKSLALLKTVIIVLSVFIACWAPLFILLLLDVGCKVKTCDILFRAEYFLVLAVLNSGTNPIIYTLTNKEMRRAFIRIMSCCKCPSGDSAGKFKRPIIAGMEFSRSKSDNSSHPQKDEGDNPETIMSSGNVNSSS
# Glyceraldehyde-3-phosphate dehydrogenase, sequence (P04406 whole entry): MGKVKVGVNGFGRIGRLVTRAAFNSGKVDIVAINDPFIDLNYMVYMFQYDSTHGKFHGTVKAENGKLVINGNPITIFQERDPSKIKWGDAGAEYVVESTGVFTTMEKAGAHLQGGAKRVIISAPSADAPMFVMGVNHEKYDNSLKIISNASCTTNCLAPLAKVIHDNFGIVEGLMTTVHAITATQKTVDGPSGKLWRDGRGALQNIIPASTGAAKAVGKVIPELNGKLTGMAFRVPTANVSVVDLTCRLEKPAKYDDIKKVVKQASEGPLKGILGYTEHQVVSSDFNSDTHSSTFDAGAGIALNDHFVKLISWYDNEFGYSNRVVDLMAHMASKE
# Voltage-gated inwardly rectifying potassium channel KCNH2, sequence (Q12809 whole entry): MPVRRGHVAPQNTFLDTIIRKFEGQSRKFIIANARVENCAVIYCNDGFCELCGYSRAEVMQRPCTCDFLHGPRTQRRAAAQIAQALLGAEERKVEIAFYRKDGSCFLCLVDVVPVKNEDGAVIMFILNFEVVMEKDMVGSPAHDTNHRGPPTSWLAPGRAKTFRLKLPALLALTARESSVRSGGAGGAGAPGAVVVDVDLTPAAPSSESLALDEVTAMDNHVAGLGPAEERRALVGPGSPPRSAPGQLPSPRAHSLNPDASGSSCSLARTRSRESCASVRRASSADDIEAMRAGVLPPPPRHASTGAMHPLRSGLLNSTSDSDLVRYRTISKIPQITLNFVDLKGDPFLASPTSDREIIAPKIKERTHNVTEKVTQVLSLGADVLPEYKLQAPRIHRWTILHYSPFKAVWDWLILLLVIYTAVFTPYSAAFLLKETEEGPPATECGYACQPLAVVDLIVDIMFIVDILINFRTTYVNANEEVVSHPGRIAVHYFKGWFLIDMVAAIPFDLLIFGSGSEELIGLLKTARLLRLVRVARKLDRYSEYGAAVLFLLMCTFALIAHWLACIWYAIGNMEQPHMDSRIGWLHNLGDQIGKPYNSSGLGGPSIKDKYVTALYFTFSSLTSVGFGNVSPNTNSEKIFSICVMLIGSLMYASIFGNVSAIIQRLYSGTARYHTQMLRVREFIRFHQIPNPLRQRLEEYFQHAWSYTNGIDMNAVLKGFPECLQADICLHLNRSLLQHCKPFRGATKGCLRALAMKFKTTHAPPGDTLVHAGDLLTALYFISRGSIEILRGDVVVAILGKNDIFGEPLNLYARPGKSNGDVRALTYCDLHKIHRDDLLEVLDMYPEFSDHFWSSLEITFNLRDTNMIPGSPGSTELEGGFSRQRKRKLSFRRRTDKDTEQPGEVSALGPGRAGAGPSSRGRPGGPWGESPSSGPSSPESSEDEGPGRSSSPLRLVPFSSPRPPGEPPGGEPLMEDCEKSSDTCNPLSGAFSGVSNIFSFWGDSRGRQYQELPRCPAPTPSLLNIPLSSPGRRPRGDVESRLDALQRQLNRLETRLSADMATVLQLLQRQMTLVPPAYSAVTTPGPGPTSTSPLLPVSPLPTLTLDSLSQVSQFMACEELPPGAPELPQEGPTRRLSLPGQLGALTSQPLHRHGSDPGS
structure (smiles),measurement,setting,value
COc1c(C)c2c(c(O)c1C/C=C(\C)CCC(=O)O)C(=O)OC2 [MYCOPHENOLIC ACID],EC50,[1],10.2 µM (active)
same,EC50,[2],0.116 µM (active)
same,CC50,Vero [3],4.61 µM (active)
same,EC50,[4],8.2 µM (active)
same,EC50,[5],1.64 µM (active)
same,EC50,[6],10.9 µM (active)
same,IC50,Vero [7],< 0.05 µM (active)
same,CC50,Vero [8],9.68 µM (active)
same,AC50,Cytochrome P450 1A2,15.8 µM (inconclusive)
COC(=O)Cn1c2c(c3cc(C)ccc31)CCCC2,IC50,Bcl-2-related protein A1 [9],> 100 µM (not active)
same,IC50,Bcl-2-related protein A1 [10],> 100 µM (not active)
O=Nc1c(-c2c(O)[nH]c3ccccc23)[nH]c2ccccc12 [INDIRUBIN-3-MONOXIME],IC50,Danio rerio,0.31 µM (active)
same,AC50,Cytochrome P450 2C19,39.8 µM (inconclusive)
same,AC50,Cytochrome P450 2C9 [11],12.6 µM (inconclusive)
same,AC50,Cytochrome P450 2C9 [12],39.8 µM (inconclusive)
O=C(C=C=Nc1ccccc1)C(=O)N=C=Cc1ccccc1,IC50,[13],1.91 µM (active)
same,EC50,[14],> 112 µM (not active)
same,EC50,[15],47 µM (active)
same,CC50,[16],16.6 µM (active)
same,IC50,[17],4.55 µM (not active)
same,IC50,[18],0.972 µM (active)
same,IC50,[19],> 49.8 µM (not active)
same,EC50,[20],5.61 µM (inconclusive)
same,CC50,Vero [8],18.9 µM (active)
C/C(Nc1cccc(F)c1)=C(/C#N)C(N)=O,EC50,[21],0.88 µM (active)
NC(=O)c1c(-c2cccs2)csc1N,IC50,14-3-3 protein gamma,> 50 µM (not active)
same,AC50,[22],> 380 µM (inactive)
same,EC50,Protein RecA,1.02 µM (active)
CS(=O)(=O)c1nc(-c2ccc3ccccc3c2)cc(C(F)(F)F)n1,IC50,[23],> 100 µM (not active)
same,IC50,Bcl-2-related protein A1 [10],> 100 µM (not active)
same,IC50,Bcl-2-related protein A1 [24],> 100 µM (not active)
OC1c2c(F)cccc2N=C2CCCCCN21 (configuration not stated),CC50,Vero [25],> 200 µM (active)
